Laboratory results taken from publication PMC7794231 (2021).

How the values were obtained:
[1] = system: c-Myc (DNA, G4) TGAGGGTGGGTAGGGTGGGTAA; experiment: fluorescence lifetime displacement assay (TCSPC); conditions: 100 mM KCl (K+), 10 mM lithium cacodylate (Li+), pH 7.3, 2 µM DAOTA-M2 displaced, 4 µM c-Myc
[2] = system: ds26 (DNA, duplex) CAATCGGATCGAATTCGATCCGATTG; experiment: fluorescence lifetime (TCSPC); conditions: 100 mM KCl (K+), 10 mM lithium cacodylate (Li+) (buffer part); Xenopus egg extract 33 µL + 12 µL buffer; 2 µM DAOTA-M2, 44 µM ds26; 21 °C; lifetime 6.1 ns
[3] = system: c-Myc (DNA, G4) TGAGGGTGGGTAGGGTGGGTAA; experiment: fluorescence lifetime (TCSPC); conditions: 100 mM KCl (K+), 10 mM lithium cacodylate (Li+); pH 7.3; 2 µM DAOTA-M2, 4 µM c-Myc, 20 µM CT-DNA present; lifetime 6.1 to 11.7 ns

SMILES	binding [1]	further results
NCCOc1cc(C(=O)Nc2cc(OCCN)c3ccccc3n2)nc(C(=O)Nc2cc(OCCN)c3ccccc3n2)c1	–	binding ([1]; 20 µM CT-DNA present, PDS to 14.4 µM): yes
[O-2].[O-]c1cc(OCCN2CCCCC2)ccc1/C=N/c1ccccc1/N=C/c1ccc(OCCN2CCCCC2)cc1[O-].[V+4]	yes	–
N=C(N)c1ccc(-c2cc3ccc(C(=N)N)cc3[nH]2)cc1	–	binding ([1]; 20 µM CT-DNA present, small lifetime drop): no
c1cc2oc3cccc4c3[c+]3c2c(c1)n(CCN1CCOCC1)c1cccc(c13)n4CCN1CCOCC1	–	binding [2]: yes; binding [3]: yes

More lines, main results first:

binding [1]	SMILES	further results
weak	[O-]c1cc(OCCN2CCCCC2)ccc1/C=N/c1ccccc1/N=C/c1ccc(OCCN2CCCCC2)cc1[O-].[Zn+2]	–
yes	[Ni+2].[O-]c1cc(OCCN2CCCCC2)ccc1/C=N/c1ccccc1/N=C/c1ccc(OCCN2CCCCC2)cc1[O-]	–
yes	[Cu+2].[O-]c1cc(OCCN2CCCCC2)ccc1/C=N/c1ccccc1/N=C/c1ccc(OCCN2CCCCC2)cc1[O-]	–
